Test results as given in patent US20240058344A1, “METHODS OF TREATING NEURODEGENERATIVE DISORDERS AND STAT3-LINKED CANCERS USING SUPPRESSORS OF ELECTRON LEAK” (Cornell University, priority 2020, published 2024).

Experiments:
[1] = Drug tolerance during chronic oral administration (body weight, behavior); assay type: in vivo, mice
Experimental: (FIGS. 1C-D) Body weights of male nontransgenic (NTG) or hTauP301S mice treated with S3QEL2 (FIG. 1C) (S3, 5 mg/kg/day, PO in almond butter), S1QEL1.1 (FIG. 1D) (10 mg/kg/day, PO in almond butter), or vehicle. (FIG. 1E) Levels of S3QEL2 in the mouse brain following almond butter (AB) or chow administration at indicated doses for 21 days. (n=15 mice per dose). n=3-15 wild-type mice per condition. (FIG. 1F) Body weight of 4-5-month-old wild-type male mice treated with formulated chow containing S3QEL2 at indicated doses and durations (n=15 mice per dose).
A series of pharmacokinetic and drug tolerance experiments with S3QEL2 in adult wild-type and transgenic hTauP301S mice was first performed. Different administration routes and drug formulations were tested. […] Chow that was formulated to deliver 0, 5, 15, or 30 mg/kg/day of S3QEL2 was also tested.

[2] = tested on: genes linked to neuroinflammation and glial reactivity; assay: Microfluidic RT-qPCR panel of neuroinflammation-related genes in hippocampi of hTauP301S mice; assay type: in vivo; conditions: 10-month-old hTauP301S mice, six weeks oral dosing, vs vehicle
Experimental: Subset of neuroinflammatory markers measured by RT-qPCR in hippocampi of 10-month-old male nontransgenic (NTG) or hTauP301S mice after 6 weeks of oral dosing with 5 mg/kg/day S3QEL2, 10 mg/kg/day S1QEL1.1, or vehicle. […] Average fold-change vs NTG. n=3-5 mice per group.
Next, studies were conducted to test if S3QEL2 or SIQEL1.1 altered the expression of genes involved in neuroinflammation and glial reactivity in hTauP301S mice.

[3] = tested on: GFAP; phospho-serine 202/205 tau; assay: Immunofluorescent staining of GFAP and phospho-serine 202/205 tau (AT8) in hTauP301S mice; assay type: in vivo; conditions: 6 weeks oral dosing
Source text: Immunofluorescent staining and quantification of astrocytic marker GFAP (red, FIG. 4A) and phospho-serine 202/205 tau (AT8, green, FIG. 4B) in male nontransgenic (NTG) and hTauP301S mice after 6 weeks of oral dosing with S3QEL2 or vehicle. (FIGS. 4C-4E) n=12-16 mice per group; *p<0.05, **p<0.01, ***p<0.001, ANOVA with Bonferroni's test.
As assessed by immunolabeling, hTauP301S mice treated with S3QEL2 also had reduced levels of glial fibrillary acidic protein (GFAP)-positive astrogliosis and phosphorylated tau (FIG. 7). Western blotting confirmed reduced levels of phosphorylated but not total tau in these mice (FIG. 5).

[4] = tested on: hTauP301S mice; assay: Survival of hTauP301S mice on S3QEL2-formulated chow; assay type: in vivo; conditions: long-term chow administration from 4-5 months of age
Source text: Nontransgenic (NTG) and transgenic hTauP301S male mice received oral dosing with S3QEL2-formulated chow or control chow (Control) for indicated durations starting at 4-5 months of age. n=14-15 mice per genotype and treatment, pairwise Mantel-Cox test.
Survival rates in wild-type and transgenic hTauP301S mice during chronic treatment with control or S3QEL2-containing chow was also monitored.

[5] = tested on: primary neurons with primary mouse microglia; assay: Tau-associated neuronal damage in primary neurons cultured with microglia; assay type: cell-based; conditions: 10 μM; AAV human P301S tau
Experimental: Primary neurons were immunostained for MAP2 or NeuN following mock treatment or transduction with AAV encoding human P301S mutant tau under the synapsin-1 promoter. Neurons were cultured without (FIGS. 9A-9B) or with (FIGS. 9C-9D) primary mouse microglia. S3QEL2 (S3, 10 μM). n=4 per condition.
To begin dissecting the mechanisms by which S3QEL2 affects neural cell function and disease-linked processes, studies in primary cultures were conducted. Isolated mouse-derived neurons were transduced with adeno-associated viral vectors (AAVs) encoding wild-type or the P301S mutant form of the human tau protein (FIG. 8A). […] However, S3QEL reduced neuronal damage in the presence of astrocytes (approx. 30% astrocytes, FIG. 10A). Tau can also promote aberrant neuronal activity and hypersynchrony. S3QEL reduced aberrant neuronal firing in tau-transduced neurons co-cultured with astrocytes (FIGS. 10B-10C).

[6] = tested on: T98G glioblastoma cells; assay: Glioblastoma cell proliferation, CellTiter-Glo luciferase assay, T98G; assay type: cell-based, human; conditions: 0-50 μM, 72 and 96 h
Experimental: Relative cell density was measured using the CellTiter-Glo luciferase assay. n=3 wells per condition. *p<0.05, **p<0.01, ***p<0.001 vs. 0 μM, one-way ANOVA with Dunnett's multiple comparisons test.
The effect of S3QELs on proliferation of glial tumor cells that have different oncogenic mutations was assessed. In particular, proliferation rates were assessed in three different human immortalized glioblastoma cells lines (A-172, T98G, and U-87 MG). A-172 and U-87 lines have mutations in PTEN, a phosphatase that indirectly regulates PI3K activities, whereas T98G cell line has a mutation in p53, a well-known tumor suppressor gene. STAT3 can affect PI3K signaling and p53 transcription and could thereby promote glioblastoma cell proliferation. Whether S3QELs reduce glioblastoma cell proliferation and aberrant intracellular signaling was tested.
Briefly, two complementary methods were used to assess cell proliferation, including the CellTiter-Glo assay and DAPI staining of cell nuclei. The effects of S3QEL2 treatment on A-172, T98G, and U-87 MG cells were measured at different drug concentrations (0, 6, 20, 30, 40, or 50 μM) and time-points after treatment (72 or 96 hours). S3QEL2 inhibits proliferation of A-172 and T98G glioblastoma cells in a highly dose-dependent manner and these effects are similar at different time-points (FIG. 15A-B).

[7] = tested on: astrocytes; assay: Oxygen consumption rates (mitochondrial respiration) in astrocytes; assay type: cell-based
Source text: Oxygen consumption rates (OCR) and maximal consumption rates are shown for indicated S3QEL2 concentrations and time points. Antimycin and rotenone were used as positive controls to inhibit mitochondrial respiration. ***p<0.001 vs. vehicle, two-way repeated measures ANOVA with Dunnett's multiple comparisons test.

Question: For `CCCN(CCC)c1ncnc2c1cnn2-c1ccc(C)c(C)c1` [S3QEL2], which “Adverse health effects such as weight loss or altered behavior” value ([1]; PO in almond butter, S3QEL2 5 mg/kg/day, S1QEL1.1 10 mg/kg/day, NTG or hTauP301S mice) is on record?
Answer: Its value is “did not result in obvious adverse health effects”.

Question: And the “Tolerability of chow administration” value ([1]; chow 5, 15 or 30 mg/kg/day, high doses and long treatment durations, adult wild-type mice)?
Answer: The value was “tolerated well”.

Question: What about the “Expression of genes linked to neuroinflammation and glial reactivity” value [2] of the same molecule?
Answer: The value was “reduced expression of diverse genes linked to neuroinflammation and glial reactivity”.

Question: What about the “GFAP-positive astrogliosis (immunolabeling)” value [3] of the same molecule?
Answer: The value was “reduced”.

Question: And the “Phosphorylated tau (AT8 immunolabeling)” value [3]?
Answer: The value was “reduced”.

Question: What about the “Early mortality associated with tauopathy” value [4] of the same molecule?
Answer: Its value is “significantly reduced early mortality”.

Question: And the “Tau-associated neuronal damage, neurons cultured with microglia” value [5]?
Answer: The value was “did not affect tau-associated neuronal damage”.

Question: And the “Cell proliferation (relative cell density, CellTiter-Glo)” value [6]?
Answer: Its value is “dose-dependently inhibited cell proliferation”.

Question: What about the “Mitochondrial respiration (oxygen consumption rates, OCR)” value [7] of the same molecule?
Answer: The value was “does not affect mitochondrial respiration”.
